Values after ≈ are worked out from the molar mass of the structure shown.
Legend:
[1] = Iron chelating activity of the compound assessed as stability constant of Fe3+-compound complex after 5 min by spectrophotometric titration analysis; format: physicochemical
[2] = system: Pseudomonas aeruginosa; test: Antimicrobial activity against Pseudomonas aeruginosa assessed as growth inhibition incubated for 2 hr measured after 24 hr by turbidity based assay; format: functional
[3] = system: Escherichia coli; test: Antimicrobial activity against Escherichia coli assessed as growth inhibition incubated for 2 hr measured after 24 hr by turbidity based assay; format: functional
[4] = system: Bacillus subtilis; test: Antimicrobial activity against Bacillus subtilis assessed as growth inhibition incubated for 2 hr measured after 24 hr by turbidity based assay; format: functional
[5] = system: Bacillus cereus; test: Antimicrobial activity against Bacillus cereus assessed as growth inhibition incubated for 2 hr measured after 24 hr by turbidity based assay; format: functional
[6] = system: Staphylococcus aureus; test: Antimicrobial activity against Staphylococcus aureus assessed as growth inhibition incubated for 2 hr measured after 24 hr by turbidity based assay; format: functional
[7] = Iron chelating activity of the compound assessed as stability constant of Fe3+-compound complex; format: physicochemical

| log K [1] | MIC [2] [µg/mL] | MIC [3] [µg/mL] | MIC [4] [µg/mL] | MIC [5] [µg/mL] | MIC [6] [µg/mL] | log K [7] | Structure (SMILES) |
| --- | --- | --- | --- | --- | --- | --- | --- |
| 32.6 | 16 (≈ 24.9 µM) | 24 (≈ 37.4 µM) | 40 (≈ 62.3 µM) | 40 (≈ 62.3 µM) | 40 (≈ 62.3 µM) |  | CCn1ccc(=O)c(O)c1C(=O)NCCN(CCNC(=O)c1c(O)c(=O)ccn1CC)CCNC(=O)c1c(O)c(=O)ccn1CC |
|  | 40 (≈ 55.1 µM) | 40 (≈ 55.1 µM) | 80 (≈ 110 µM) | 80 (≈ 110 µM) | 80 (≈ 110 µM) |  | CCCCn1ccc(=O)c(O)c1C(=O)NCCN(CCNC(=O)c1c(O)c(=O)ccn1CCCC)CCNC(=O)c1c(O)c(=O)ccn1CCCC |
|  | 80 (≈ 203 µM) | 80 (≈ 203 µM) | 80 (≈ 203 µM) | 80 (≈ 203 µM) | 40 (≈ 102 µM) | 28.6 | O=C(O)CN(CCN(CC(=O)O)CC(=O)O)CCN(CC(=O)O)CC(=O)O [PENTETIC ACID] |
|  | 40 (≈ 58 µM) | 40 (≈ 58 µM) | 40 (≈ 58 µM) | 40 (≈ 58 µM) | 80 (≈ 116 µM) |  | O=C(NCCN(CCNC(=O)c1c(O)c(=O)ccn1CCO)CCNC(=O)c1c(O)c(=O)ccn1CCO)c1c(O)c(=O)ccn1CCO |
| 32.1 | 24 (≈ 40 µM) | 24 (≈ 40 µM) | 40 (≈ 66.7 µM) | 40 (≈ 66.7 µM) | 40 (≈ 66.7 µM) |  | Cn1ccc(=O)c(O)c1C(=O)NCCN(CCNC(=O)c1c(O)c(=O)ccn1C)CCNC(=O)c1c(O)c(=O)ccn1C |
| 32.3 | 16 (≈ 21.9 µM) | 16 (≈ 21.9 µM) | 40 (≈ 54.7 µM) | 80 (≈ 109 µM) | 80 (≈ 109 µM) |  | COCCn1ccc(=O)c(O)c1C(=O)NCCN(CCNC(=O)c1c(O)c(=O)ccn1CCOC)CCNC(=O)c1c(O)c(=O)ccn1CCOC |
|  | 40 (≈ 49.4 µM) | 80 (≈ 98.8 µM) | 40 (≈ 49.4 µM) | 40 (≈ 49.4 µM) | 40 (≈ 49.4 µM) |  | CCCCCCn1ccc(=O)c(O)c1C(=O)NCCN(CCNC(=O)c1c(O)c(=O)ccn1CCCCCC)CCNC(=O)c1c(O)c(=O)ccn1CCCCCC |
| 32 | 40 (≈ 48.7 µM) | 40 (≈ 48.7 µM) | 40 (≈ 48.7 µM) | 40 (≈ 48.7 µM) | 40 (≈ 48.7 µM) |  | O=C(NCCN(CCNC(=O)c1c(O)c(=O)ccn1CCOCCO)CCNC(=O)c1c(O)c(=O)ccn1CCOCCO)c1c(O)c(=O)ccn1CCOCCO |
|  |  |  |  |  |  | 34 | O=C(O)C(NCCNC(C(=O)O)c1ccccc1O)c1ccccc1O (centres undefined) |
|  |  |  |  |  |  | 30.4 | CC(=O)N(O)CCCCCNC(=O)CCC(=O)N(O)CCCCCNC(=O)CCC(=O)N(O)CCCCCN [DEFEROXAMINE] |
| 30.7 | 24 (≈ 43 µM) | 80 (≈ 143 µM) | 40 (≈ 71.7 µM) | 40 (≈ 71.7 µM) | 40 (≈ 71.7 µM) |  | O=C(NCCN(CCNC(=O)c1[nH]ccc(=O)c1O)CCNC(=O)c1[nH]ccc(=O)c1O)c1[nH]ccc(=O)c1O |
|  |  |  |  |  |  | 40 | O=C(O)CN(CCN(CC(=O)O)Cc1ccccc1O)Cc1ccccc1O |

Source: ChEMBL document CHEMBL3045728, “Synthesis, physico-chemical properties, and antimicrobial evaluation of a new series of iron(III) hexadentate chelators” (Med Chem Res, 2013)
